Measurements as given in patent US20070060629A1, “Large conductance calcium-activated k channel opener” (priority 2003, published 2007).

Assays:
[1] = tested on: isolated rabbit urinary bladder; experiment: Relaxation effect on potassium-induced contraction of isolated rabbit urinary bladder; type: cell-based; settings: Oryctolagus cuniculus; isolated rabbit urinary bladder strips pre-contracted with high-K+ (30 mM); relaxation relative to 10^-4 M papaverine as 100%; rank A, B or C; read-out: IC50 value (50% relaxation concentration)
Procedure: Relaxation Effect on Potassium-Induced Contraction of Isolated Rabbit Urinary Bladder
Urinary bladder was isolated from Male NZW rabbits (body weight: 2.0-3.5 kg) and immersed in ice-cold Krebs-bicarbonate solution (in mM: 118 NaCl, 4.7 KCl, 2.55 CaCl2, 1.18 MgSO4, 1.18 KH2PO4, 24.88 NaHCO3 and 11.1 glucose). The urinary bladder was cut into longitudinal strips (5 mm length, 3-4 mm width) after mucosal layer was removed.
Preparations were mounted in organ baths containing 10 ml of Krebs solution maintained at 37° C. and gassed with 95% O2/5% CO2. Accordingly, preparations were stretched with an initial tension of 2.0±1.0 g, and changes in isometric tension were measured by force-displacement transducer. The preparations were pre-contracted by changing organ-bath solution into high-K^+ (30 mM) Krebs solution (in mM: 118 NaCl, […], 2.55 CaCl2, 1.18 MgSO4, 1.18 KH2PO4, 24.88 NaHCO3 and 11.1 glucose).
After stable tension was obtained, compounds were added into organ baths cumulatively (10^−8 M-10^−4 M). The effects of compounds were expressed as a percentage of the maximum relaxation produced by 1O^−4 M papaverine as 100%. 50% relaxation concentration (IC50) was calculated and IC50 value range (μM) of compounds of the present invention was shown in the following Table 68 with a rank of A, B or C. These ranges are as mentioned below. 3 μM≧C>1 μM≧B>0.5 μM≧A

anesthetized rats = experiment: Inhibitory effect on the rhythmic bladder contractions induced by substance P in anesthetized rats; type: in vivo, rat; settings: time during which frequency of rhythmic bladder contraction was completely inhibited; 0.25 mg/kg of compound, intravenous; substance P-infused anesthetized rats
Procedure: Inhibitory Effect on the Rhythmic Bladder Contractions Induced by Substance P in Anesthetized Rats
For the experiments, Sprague-Dawley female rats (9 to 12 weeks old) weighing between 200 to 300 g were used. After urethane anesthetization (subcutaneously administered with a dose of 1.2 g/kg), cannulae were placed in both right and left femoral veins. One intravenous catheter was used for administration of compounds, and the other was for the substance P (0.33 μg/kg/min) infusion. We also cannulated into ureter to pass urine. Polyethylene catheters were inserted into carotid artery for continuous monitoring of arterial blood pressure and heart rate. For continuous infusion, transurethral bladder catheter was inserted into the bladder through the urethra and tied in place by a ligature around the urethral orifice. One end of the catheter was attached to a pressure transducer in order to measure intravesical pressure. The other end of the catheter was used for infusion of saline into the bladder. After stabilization of blood pressure and heart rate and after the bladder was emptied, cystometry was performed by filling the bladder slowly with about 0.6 ml of saline. After about 10 minutes, intravenous infusion of substance P (0.33 μg/kg/min) was started for stabilization of the micturition reflex. Compounds were administered after stable rhythmic bladder contraction was obtained over 15 minutes. All compounds were dissolved or suspended in saline containing 0.5% Tween 80 for intravenous administration (0.1 ml/kg).
Also, pre-administration of iberiotoxin, a selective large conductance calcium-activated K channel blocker (0.15 mg/kg, intravenous administration) reduced inhibitory effect of the compounds of the present invention on the rhythmic bladder contraction.

SMILES | IC50 [1] [µM] | 100% inhibiting time (anesthetized rats) [min]
COCCNS(=O)(=O)c1ccc(-n2nc(C(F)(F)F)cc2-c2ccc(C)cc2)cc1 [Example 30] | 1 to 3 | –
Cc1ccc(-c2cc(C(F)(F)F)nn2-c2ccc(C(=O)NCCO)cc2)cc1 [Example 51] | 1 to 3 | –
Cc1onc(-c2ccccc2)c1-c1ccc(S(=O)(=O)NO)cc1 [Example 171] | – | 12.8
Cc1onc(-c2ccccc2)c1-c1ccc(C(=O)N[C@@H](C)CO)cc1 [Example 135, N-[(1S)-2-hydroxy-1-methylethyl]-4-(5-methyl-3-phenylisoxazol-4-yl)benzamide] | – | 17.8
Cc1cccc(-n2nc(C(F)(F)F)cc2-c2ccc(C)c(S(N)(=O)=O)c2)c1 [Example 45] | 1 to 3 | –
COC(=O)NCCNS(=O)(=O)c1ccc(-n2nc(C(F)(F)F)cc2-c2ccc(C)cc2)cc1 [Example 59, methyl {2-[({4-[5-(4-methylphenyl)-3-(trifluoromethyl)-1H-pyrazol-1-yl]phenyl}sulfonyl)amino]-ethyl}carbamate] | 1 to 3 | 5.7
Cc1ccc(-c2cc(C(F)(F)F)nn2-c2ccccc2)cc1S(=O)(=O)NCCO [Example 46] | 1 to 3 | –

The next lines start with results.

IC50 [1] [µM] | SMILES | 100% inhibiting time (anesthetized rats) [min]
< 0.5 | Cc1onc(-c2ccc(N(C)C)cc2)c1-c1ccc(S(N)(=O)=O)cc1 [Example 115] | –
1 to 3 | Cc1onc(-c2ccccc2)c1-c1ccc(C(N)=O)c(O)c1 [Example 155, 2-hydroxy-4-(5-methyl-3-phenylisoxazol-4-yl)benzamide] | –
0.5 to 1 | Cc1onc(-c2ccccc2)c1-c1ccc(OCCO)cc1 [Example 152, 2-[4-(5-methyl-3-phenylisoxazol-4-yl)phenoxy]ethanol] | –
0.5 to 1 | Cc1onc(-c2cccnc2)c1-c1ccc(C(=O)NCCO)cc1 [Example 207] | 13.9
